Measured values taken from patent US9290451B2 (Hoffmann-La Roche Inc., priority 2011, dated 2016).

Experiments:
human CB1 receptors = human CB1 receptors (Homo sapiens (Human), UniProt P21554); test: cAMP assay, CHO cells expressing human CB1 receptors; type: cell-based; details: CHO cells expressing human CB1, cAMP; read-out: human CB1 EC50
Protocol: (§1) CHO cells expressing human CB1 or CB2 receptors are seeded 17-24 hours prior to the experiment 50.000 cells per well in a black 96 well plate with flat clear bottom (Corning Costar #3904) in DMEM (Invitrogen No. 31331), 1×HT supplement, with 10% fetal calf serum and incubated at 5% CO2 and 37° C. in a humidified incubator. The growth medium was exchanged with Krebs Ringer Bicarbonate buffer with 1 mM IBMX and incubated at 30° C. for 30 min Compounds were added to a final assay volume of 100 μl and incubated for 30 min at 30° C. Using the cAMP-Nano-TRF detection kit the assay (Roche Diagnostics) was stopped by the addition of 50 μl lysis reagent (Tris, NaCl, 1.5% Triton X100, 2.5% NP40, 10% NaN3) and 50 μl detection solutions (20 μM mAb Alexa700-cAMP 1:1, and 48 μM Ruthenium-2-AHA-cAMP) and shaken for 2 h at room temperature. The time-resolved energy transfer is measured by a TRF reader (Evotec Technologies GmbH), equipped with a ND:YAG laser as excitation source. The plate is measured twice with the excitation at 355 nm and at the emission with a delay of 100 ns and a gate of 100 ns, total exposure time 10 s at 730 (bandwidth 30 nm) or 645 nm (bandwidth 75 nm), respectively. The FRET signal is calculated as follows: FRET=T730-Alexa730-P(T645-B645) with P═Ru730-B730/Ru645-B645, where T730 is the test well measured at […], T645 is the test well measured at 645 nm, B730 and B645 are the buffer controls at 730 nm and 645 nm, respectively. cAMP content is determined from the function of a standard curve spanning from 10 μM to 0.13 nM cAMP.
(§2) EC50 values were determined using Activity Base analysis (ID Business Solution, Limited). The EC50 values for a wide range of cannabinoid agonists generated from this assay for reference compounds were in agreement with the values published in the scientific literature.

human CB2 receptors = human CB2 receptors (Homo sapiens (Human), UniProt P34972); test: cAMP assay, CHO cells expressing human CB2 receptors; type: cell-based; details: CHO cells expressing human CB2, cAMP; read-out: human CB2 EC50
Sequence of human CB2 receptors (P34972 whole entry): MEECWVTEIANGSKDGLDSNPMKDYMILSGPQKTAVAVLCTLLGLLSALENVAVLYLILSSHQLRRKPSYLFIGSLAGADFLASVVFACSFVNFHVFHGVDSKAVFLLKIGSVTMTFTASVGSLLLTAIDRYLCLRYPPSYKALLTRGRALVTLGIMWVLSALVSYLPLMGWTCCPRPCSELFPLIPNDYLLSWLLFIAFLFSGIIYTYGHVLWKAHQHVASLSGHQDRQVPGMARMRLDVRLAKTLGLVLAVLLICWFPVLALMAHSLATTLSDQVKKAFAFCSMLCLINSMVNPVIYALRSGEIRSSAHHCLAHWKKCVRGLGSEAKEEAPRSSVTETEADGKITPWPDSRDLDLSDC
Protocol: as §1, §2

Sequence of human CB1 receptors (P21554 whole entry): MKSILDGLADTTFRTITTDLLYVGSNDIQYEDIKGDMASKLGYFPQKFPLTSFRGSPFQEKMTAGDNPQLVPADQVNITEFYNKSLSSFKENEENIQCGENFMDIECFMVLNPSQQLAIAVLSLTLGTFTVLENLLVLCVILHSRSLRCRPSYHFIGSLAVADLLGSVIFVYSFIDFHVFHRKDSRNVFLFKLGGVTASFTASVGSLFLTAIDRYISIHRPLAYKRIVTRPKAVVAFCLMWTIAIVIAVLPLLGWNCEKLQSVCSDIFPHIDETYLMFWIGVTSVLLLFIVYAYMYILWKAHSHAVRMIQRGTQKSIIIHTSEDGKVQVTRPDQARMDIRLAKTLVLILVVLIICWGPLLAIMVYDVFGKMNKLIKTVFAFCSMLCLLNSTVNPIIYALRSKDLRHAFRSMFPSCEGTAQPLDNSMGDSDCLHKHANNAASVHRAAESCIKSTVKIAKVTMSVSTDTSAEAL

SMILES: O=C(N[C@@H](CC1CC1)c1nccs1)c1cccc(-c2cccc(Cl)c2)n1 [Example 60, 6-(3-Chloro-phenyl)-pyridine-2-carboxylic acid ((S)-2-cyclopropyl-1-thiazol-2-yl-ethyl)-amide]
- EC50 (human CB1 receptors): > 10000 nM
- EC50 (human CB2 receptors): 62.2 nM

SMILES: CC(C)(NC(=O)c1ccc(N2CCCC2=O)c(OCC2CC2)n1)c1ncco1 [Example 61, 6-Cyclopropylmethoxy-5-(2-oxo-pyrrolidin-1-yl)-pyridine-2-carboxylic acid (1-methyl-1-oxazol-2-yl-ethyl)-amide]
- EC50 (human CB1 receptors): > 10000 nM
- EC50 (human CB2 receptors): 1480 nM

SMILES: Cc1ccc(C(=O)NC(C)(C)c2nccs2)nc1OCC1CC1 [Example 62, 6-Cyclopropylmethoxy-5-methyl-pyridine-2-carboxylic acid (1-methyl-1-thiazol-2-yl-ethyl)-amide]
- EC50 (human CB1 receptors): 561 nM
- EC50 (human CB2 receptors): 11.5 nM

SMILES: CC(C)(NC(=O)c1ccc(N2CCCC2)c(OCC2CC2)n1)C1=NCCO1 [Example 63, 6-Cyclopropylmethoxy-5-pyrrolidin-1-yl-pyridine-2-carboxylic acid [1-(4,5-dihydro-oxazol-2-yl)-1-methyl-ethyl]-amide]
- EC50 (human CB1 receptors): > 10000 nM
- EC50 (human CB2 receptors): 112 nM

SMILES: Cc1ccc(C(=O)N[C@@H](CC(C)C)c2nccs2)nc1OCC1CC1 [Example 64, 6-Cyclopropylmethoxy-5-methyl-pyridine-2-carboxylic acid ((S)-3-methyl-1-thiazol-2-yl-butyl)-amide]
- EC50 (human CB1 receptors): 1460 nM
- EC50 (human CB2 receptors): 18.9 nM

SMILES: Cc1ccc(C(=O)N[C@@H](CC2CC2)c2nccs2)nc1OCC1CC1 [Example 65, 6-Cyclopropylmethoxy-5-methyl-pyridine-2-carboxylic acid ((S)-2-cyclopropyl-1-thiazol-2-yl-ethyl)-amide]
- EC50 (human CB1 receptors): > 10000 nM
- EC50 (human CB2 receptors): 33.8 nM

SMILES: O=C(NN1CCCCC1)c1ccc(Cl)c(-c2cccc(Cl)c2)n1 [Example 66, 5-Chloro-6-(3-chloro-phenyl)-pyridine-2-carboxylic acid piperidin-1-ylamide]
- EC50 (human CB1 receptors): > 10000 nM
- EC50 (human CB2 receptors): 216 nM

SMILES: CNC(=O)C(C)(C)NC(=O)c1ccc(C2CC2)c(-c2cccc(Cl)c2)n1 [Example 67, 6-(3-Chloro-phenyl)-5-cyclopropyl-pyridine-2-carboxylic acid (1-methyl-1-methylcarbamoyl-ethyl)-amide]
- EC50 (human CB1 receptors): > 10000 nM
- EC50 (human CB2 receptors): 797 nM

SMILES: O=C(NN1CCCCC1)c1cccc(OCC2CC2)n1 [Example 68, 6-Cyclopropylmethoxy-pyridine-2-carboxylic acid piperidin-1-ylamide]
- EC50 (human CB1 receptors): > 10000 nM
- EC50 (human CB2 receptors): 429 nM

SMILES: CC(C)(NC(=O)c1ccc(N2CC(F)(F)C2)c(OCC2CC2)n1)c1nccs1 [Example 69, 6-Cyclopropylmethoxy-5-(3,3-difluoro-azetidin-1-yl)-pyridine-2-carboxylic acid (1-methyl-1-thiazol-2-yl-ethyl)-amide]
- EC50 (human CB1 receptors): 380 nM
- EC50 (human CB2 receptors): 6 nM

SMILES: CCC(CC)(NC(=O)c1ccc(C)c(-c2cccc(Cl)c2)n1)C(=O)NC [Example 70, 6-(3-Chloro-phenyl)-5-methyl-pyridine-2-carboxylic acid (1-ethyl-1-methylcarbamoyl-propyl)-amide]
- EC50 (human CB1 receptors): > 10000 nM
- EC50 (human CB2 receptors): 57.4 nM

SMILES: CCC(CC)(NC(=O)c1ccc(C2CC2)c(-c2cccc(Cl)c2)n1)C(=O)NC [Example 71, 6-(3-Chloro-phenyl)-5-cyclopropyl-pyridine-2-carboxylic acid (1-ethyl-1-methylcarbamoyl-propyl)-amide]
- EC50 (human CB1 receptors): > 10000 nM
- EC50 (human CB2 receptors): 61.2 nM

SMILES: CC(C)(NC(=O)c1cccc(-c2cccc(Cl)c2)n1)c1ncon1 [Example 72, 6-(3-Chloro-phenyl)-pyridine-2-carboxylic acid (1-methyl-1-[1,2,4]oxadiazol-3-yl-ethyl)-amide]
- EC50 (human CB1 receptors): > 10000 nM
- EC50 (human CB2 receptors): 32.8 nM

SMILES: CC(C)(NC(=O)c1ccc(C2CC2)c(OCC2CC2)n1)c1ncon1 [Example 73, 5-Cyclopropyl-6-cyclopropylmethoxy-pyridine-2-carboxylic acid (1-methyl-1-[1,2,4]oxadiazol-3-yl-ethyl)-amide]
- EC50 (human CB1 receptors): 1320 nM
- EC50 (human CB2 receptors): 40.7 nM

SMILES: CCC(CC)(NC(=O)c1ccc(C2CC2)c(OCC2CC2)n1)C(=O)NC [Example 74, 5-Cyclopropyl-6-cyclopropylmethoxy-pyridine-2-carboxylic acid (1-ethyl-1-methylcarbamoyl-propyl)-amide]
- EC50 (human CB1 receptors): > 10000 nM
- EC50 (human CB2 receptors): 8.9 nM

SMILES: CC(C)(NC(=O)c1ccc(N2CC(O)C2)c(OCC2CC2)n1)c1nccs1 [Example 75, 6-Cyclopropylmethoxy-5-(3-hydroxy-azetidin-1-yl)-pyridine-2-carboxylic acid (1-methyl-1-thiazol-2-yl-ethyl)-amide]
- EC50 (human CB1 receptors): > 10000 nM
- EC50 (human CB2 receptors): 15.2 nM

SMILES: CCC(CC)(NC(=O)c1cccc(-c2ccc(Cl)cc2)n1)C(=O)NC [Example 76, 6-(4-Chloro-phenyl)-pyridine-2-carboxylic acid (1-ethyl-1-methylcarbamoyl-propyl)-amide]
- EC50 (human CB1 receptors): > 10000 nM
- EC50 (human CB2 receptors): 185 nM

SMILES: CC(C)(NC(=O)c1ccc(N2CCCS2(=O)=O)c(OCC2CC2)n1)c1nccs1 [Example 77, 6-(Cyclopropylmethoxy)-5-(1,1-dioxido-isothiazolidin-2-yl)-N-[2-(1,3-thiazol-2-yl)propan-2-yl]pyridine-2-carboxamide]
- EC50 (human CB1 receptors): > 10000 nM
- EC50 (human CB2 receptors): 1400 nM

SMILES: CCC(CC)(NC(=O)c1ccc(N2CCC(F)(F)C2)c(OCC2CC2)n1)C(=O)NC [Example 78, 6-Cyclopropylmethoxy-5-(3,3-difluoro-pyrrolidin-1-yl)-pyridine-2-carboxylic acid (1-ethyl-1-methylcarbamoyl-propyl)-amide]
- EC50 (human CB1 receptors): > 10000 nM
- EC50 (human CB2 receptors): 4.6 nM

SMILES: O=C(c1ccc(N2CCC(F)(F)C2)c(OCC2CC2)n1)N1CCS(=O)(=O)CC1 [Example 79]
- EC50 (human CB1 receptors): > 10000 nM
- EC50 (human CB2 receptors): 2040 nM

SMILES: CNC(=O)C(C)(C)NC(=O)c1ccc(N2CCC(F)(F)C2)c(OCC2CC2)n1 [Example 80, 6-Cyclopropylmethoxy-5-(3,3-difluoro-pyrrolidin-1-yl)-pyridine-2-carboxylic acid (1-methyl-1-methylcarbamoyl-ethyl)-amide]
- EC50 (human CB1 receptors): 5.8 nM
- EC50 (human CB2 receptors): 134 nM

SMILES: CCC(CC)(NC(=O)c1ccc(OC)c(-c2cccc(Cl)c2)n1)C(=O)NC [Example 81, 6-(3-Chloro-phenyl)-5-methoxy-pyridine-2-carboxylic acid (1-ethyl-1-methylcarbamoyl-propyl)-amide]
- EC50 (human CB1 receptors): > 10000 nM
- EC50 (human CB2 receptors): 417 nM

SMILES: COc1ccc(C(=O)NC(C)(C)c2nccs2)nc1-c1cccc(Cl)c1 [Example 82, 6-(3-Chloro-phenyl)-5-methoxy-pyridine-2-carboxylic acid (1-methyl-1-thiazol-2-yl-ethyl)-amide]
- EC50 (human CB1 receptors): 2290 nM
- EC50 (human CB2 receptors): 140 nM

SMILES: CC(C)(NC(=O)c1ccc(Cl)c(OCC2CC2)n1)c1ncon1 [Example 83, 5-Chloro-6-cyclopropylmethoxy-pyridine-2-carboxylic acid (1-methyl-1-[1,2,4]oxadiazol-3-yl-ethyl)-amide]
- EC50 (human CB1 receptors): > 10000 nM
- EC50 (human CB2 receptors): 347 nM

SMILES: O=C(NC1CCCCC1O)c1cccc(C2CCCCC2)n1 (centres unmarked) [Example 84, 6-Cyclohexyl-pyridine-2-carboxylic acid (2-hydroxy-cyclohexyl)-amide]
- EC50 (human CB1 receptors): > 10000 nM
- EC50 (human CB2 receptors): 292 nM
